Experimental data from the supplement of paper PMC11451515.

Test system: NOMO1
Assay: cell viability relative to DMSO control; higher = less cytotoxic
Settings: 48 h
Summary of the method: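 Three leukemia lines were tested: NOMO1 and SEM at 500 cells/well and P12-Ichikawa at 1000 cells/well. Each was adapted for at least four passages in each medium and seeded in 5 μl in 1536-well plates, and library compounds in DMSO were pin-dosed from 47 μM to 0.79 nM in 11 threefold steps. After 48 h at 37°C, CellTiter-Glo One luminescence was read. Viability is a percentage relative to DMSO wells on each plate, with cell-free wells as background.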

[1] = HPLM + 10% dialyzed FBS, 0.000781 µM
[2] = HPLM + 10% dialyzed FBS, 0.00234 µM
[3] = HPLM + 10% dialyzed FBS, 0.00702 µM
[4] = HPLM + 10% dialyzed FBS, 0.0211 µM
[5] = HPLM + 10% dialyzed FBS, 0.0632 µM
[6] = HPLM + 10% dialyzed FBS, 0.19 µM
[7] = HPLM + 10% dialyzed FBS, 0.569 µM
[8] = HPLM + 10% dialyzed FBS, 1.71 µM
[9] = HPLM + 10% dialyzed FBS, 5.12 µM
[10] = HPLM + 10% dialyzed FBS, 15.4 µM
[11] = HPLM + 10% dialyzed FBS, 46.1 µM
[12] = RPMI 5 mM glucose + 10% FBS, 0.000781 µM
[13] = RPMI 5 mM glucose + 10% FBS, 0.00234 µM
[14] = RPMI 5 mM glucose + 10% FBS, 0.00702 µM
[15] = RPMI 5 mM glucose + 10% FBS, 0.0211 µM
[16] = RPMI 5 mM glucose + 10% FBS, 0.0632 µM
[17] = RPMI 5 mM glucose + 10% FBS, 0.19 µM
[18] = RPMI 5 mM glucose + 10% FBS, 0.569 µM
[19] = RPMI 5 mM glucose + 10% FBS, 1.71 µM
[20] = RPMI 5 mM glucose + 10% FBS, 5.12 µM
[21] = RPMI 5 mM glucose + 10% FBS, 15.4 µM
[22] = RPMI 5 mM glucose + 10% FBS, 46.1 µM
[23] = RPMI 5 mM glucose + 10% dialyzed FBS, 0.000781 µM
[24] = RPMI 5 mM glucose + 10% dialyzed FBS, 0.00234 µM
[25] = RPMI 5 mM glucose + 10% dialyzed FBS, 0.00702 µM
[26] = RPMI 5 mM glucose + 10% dialyzed FBS, 0.0211 µM
[27] = RPMI 5 mM glucose + 10% dialyzed FBS, 0.0632 µM
[28] = RPMI 5 mM glucose + 10% dialyzed FBS, 0.19 µM
[29] = RPMI 5 mM glucose + 10% dialyzed FBS, 0.569 µM
[30] = RPMI 5 mM glucose + 10% dialyzed FBS, 1.71 µM
[31] = RPMI 5 mM glucose + 10% dialyzed FBS, 5.12 µM
[32] = RPMI 5 mM glucose + 10% dialyzed FBS, 15.4 µM
[33] = RPMI 5 mM glucose + 10% dialyzed FBS, 46.1 µM

Row | Compound | cell viability [1] | cell viability [2] | cell viability [3] | cell viability [4] | cell viability [5] | cell viability [6] | cell viability [7] | cell viability [8] | cell viability [9] | cell viability [10] | cell viability [11] | cell viability [12] | cell viability [13] | cell viability [14] | cell viability [15] | cell viability [16] | cell viability [17] | cell viability [18] | cell viability [19] | cell viability [20] | cell viability [21] | cell viability [22] | cell viability [23] | cell viability [24] | cell viability [25] | cell viability [26] | cell viability [27] | cell viability [28] | cell viability [29] | cell viability [30] | cell viability [31] | cell viability [32] | cell viability [33]
1 | OC1=CC2=C(C(=C1)O)C(=O)\C(=C(/O2)C3=CC(=C(O)C=C3)O)O | 97.5% | 104% | 102% | 112% | 125% | 117% | 116% | 99.7% | 118% | 110% | 109% | 98.1% | 105% | 115% | 90.8% | 110% | 108% | 106% | 110% | 95.4% | 90.5% | 97.9% | 98.2% | 98% | 109% | 107% | 104% | 118% | 110% | 104% | 107% | 106% | 102%
2 | CNC(=O)CN1CCC(Oc2cc3c(Nc4cccc(Cl)c4F)ncnc3cc2OC)CC1 | – | – | – | – | – | – | – | – | – | – | – | – | – | – | – | – | – | – | – | – | – | – | 116% | 122% | 138% | 133% | 141% | 144% | 52.7% | 41.8% | 32.1% | 33.7% | 31.7%
3 | Nc1ncnc2c1c(-c1cccc(OCc3ccccc3)c1)cn2C1CC(CN2CCCC2)C1 (configuration not stated) | 113% | 133% | 124% | 124% | 141% | 134% | 119% | 90.4% | 94.2% | 78.1% | 36.2% | – | – | – | – | – | – | – | – | – | – | – | – | – | – | – | – | – | – | – | – | – | –
4 | COC1=CC=C2/C3=N/CCN3\C(=N/C2=C1OC)NC(=O)C4=CC=CN=C4 | 124% | 132% | 123% | 131% | 121% | 126% | 114% | 111% | 93.2% | 86% | 78.6% | 104% | 115% | 113% | 123% | 132% | 108% | 110% | 114% | 107% | 115% | 92.7% | 116% | 141% | 117% | 127% | 131% | 104% | 103% | 103% | 83.6% | 76.5% | 68%
5 | COc1cccc2c1CCCC2CCCN1CCN(C2CCCCC2)CC1 (configuration not stated) | 97.9% | 105% | 99.9% | 106% | 114% | 138% | 111% | 105% | 96.7% | 99.7% | 57% | 102% | 107% | 109% | 100% | 99.5% | 103% | 103% | 94% | 96.2% | 89.7% | 66.2% | 89.2% | 100% | 98% | 92.7% | 93.1% | 104% | 92.9% | 94.8% | 109% | 87.9% | 58%
6 | O=C(Nc1cccnn1)N1CCC(=Cc2cccc(Oc3ccc(C(F)(F)F)cn3)c2)CC1 | 72.8% | 98.3% | 109% | 47.4% | 122% | 117% | 113% | 124% | 110% | 102% | 110% | 83.4% | 98.3% | 96.3% | 21.7% | 90.8% | 112% | 91.6% | 97.7% | 98.1% | 96.2% | 94.2% | 91% | 85.3% | 94.4% | 75.4% | 103% | 97.4% | 109% | 106% | 96.5% | 103% | 100%
7 | COC1=CC=C2CN(C)CC[C@@]34\C=C/[C@H](O)C[C@@H]3OC1=C24 | – | – | – | – | – | – | – | – | – | – | – | 128% | 124% | 120% | 112% | 124% | 130% | 118% | 123% | 126% | 108% | 104% | 126% | 121% | 118% | 119% | 118% | 129% | 120% | 115% | 110% | 108% | 113%
8 | CO/N=C(\C(=O)N[C@@H]1C(=O)N2C(C(=O)OCOC(=O)C(C)(C)C)=C(/C=C\c3scnc3C)CS[C@H]12)c1csc(N)n1 | 81.6% | 111% | 103% | 93.3% | 102% | 87.7% | 109% | 102% | 106% | 81.7% | 42.9% | 81% | 106% | 92.8% | 98.9% | 104% | 104% | 99.4% | 92.5% | 95% | 84.6% | 58.2% | 72.8% | 83.9% | 88% | 80.9% | 91.1% | 83.9% | 96.2% | 99.1% | 88% | 70% | 48.6%
9 | COc1cccc2c1[C@]13CCN(CC4CC4)[C@H](C2)[C@]1(OC)CCC(=O)C3 | 89.7% | 96.5% | 127% | 121% | 118% | 119% | 116% | 129% | 122% | 82.2% | 111% | 101% | 111% | 103% | 124% | 126% | 117% | 132% | 125% | 133% | 110% | 124% | 106% | 108% | 106% | 111% | 110% | 116% | 109% | 111% | 105% | 106% | 105%
